# Laboratory results reported in patent publication US20250345492A1, “AN ANTIBACTERIAL POLYPEPTIDE COMPOUND, A MEDICAL DEVICE, HYDROGEL AND USE THEREOF” (priority 2020, published 2025).
# Ends that are not written are not given here.
# Key:
# E. coli (ATCC 25922) [1] = assay: Outer membrane permeability, NPN probe; assay type: cell-based; conditions: 1×MIC to 8×MIC, NPN fluorescence, 15 min
# Description: The destruction of bacterial cell OM was determined by using hydrophobic fluorescent probe NPN (1-N-phenylnaphthylamine) to determine the effect of the compounds on the OM permeability of E. coli (ATCC 25922).
# Taking compounds 2, 8, 9, 13 and 15 of the present invention as examples, the OM permeability of E. coli with the presence of the antibacterial polypeptide compounds was analyzed. E. coli cells were washed twice with PBS solution and resuspended in 5 mM HEPES (pH 7.2), and then diluted to a concentration of […]. […] The excitation wavelength and emission wavelength were set to 350 nm and 420 nm, separately, and the cells were detected once every minute using a multifunctional ELISA reader within a 15-min period of time.
# C. tropicalis ATCC750 = conditions: fungus
# Method in brief: (§1)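 Log-phase cells grown in MH (bacteria) or SD (fungi) medium at 37 °C were plated at 1×10^5 CFU/ml with 2-fold serially diluted peptide (1-256 μM solutions added at twice final concentration). After 12 h at 37 °C, MIC was taken as the first clear well by eye, in triplicate.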
# [2] = tested on: E-2b, clinical isolated drug-resistant strain ESBL; conditions: strain E-2b (ESBL)
# Method in brief: as §1
# [3] = tested on: P-4c, clinical isolated drug-resistant strain PA; conditions: strain P-4c (PA)
# Method in brief: as §1
# [4] = tested on: E-4b, clinical isolated drug-resistant strain ESBL; conditions: strain E-4b (ESBL)
# Method in brief: as §1
# [5] = tested on: E-5b, clinical isolated drug-resistant strain ESBL; conditions: strain E-5b (ESBL)
# Method in brief: as §1
# [6] = tested on: Pseudomonas aeruginosa (ATCC 27853); conditions: standard strain
# Method in brief: as §1
# C. krusei ATCC6258 = conditions: fungus
# Method in brief: as §1
# [7] = tested on: S-4a, clinical isolated drug-resistant strain MRSA; conditions: strain S-4a (MRSA)
# Method in brief: as §1
# [8] = tested on: Staphylococcus aureus (ATCC 29213); conditions: standard strain
# Method in brief: as §1
# [9] = tested on: S-2a, clinical isolated drug-resistant strain MRSA; conditions: strain S-2a (MRSA)
# Method in brief: as §1
# [10] = tested on: P-2c, clinical isolated drug-resistant strain PA; conditions: strain P-2c (PA)
# Method in brief: as §1
# [11] = tested on: P-3c, clinical isolated drug-resistant strain PA; conditions: strain P-3c (PA)
# Method in brief: as §1
# C. glabrata ATCC22019 = conditions: fungus
# Method in brief: as §1
# [12] = tested on: S-3a, clinical isolated drug-resistant strain MRSA; conditions: strain S-3a (MRSA)
# Method in brief: as §1
# [13] = tested on: S-1a, clinical isolated drug-resistant strain MRSA; conditions: strain S-1a (MRSA)
# Method in brief: as §1
# [14] = tested on: P-5c, clinical isolated drug-resistant strain PA; conditions: strain P-5c (PA)
# Method in brief: as §1
# [15] = tested on: Bacillus subtilis (ATCC 23857); conditions: standard strain
# Method in brief: as §1
# [16] = tested on: P-1c, clinical isolated drug-resistant strain PA; conditions: strain P-1c (PA)
# Method in brief: as §1
# [17] = tested on: Staphylococcus epidermidis (ATCC 12228); conditions: standard strain
# Method in brief: as §1
# [18] = tested on: Cronobacter sakazakii (ATCC 29544); conditions: standard strain
# Method in brief: as §1
# C. parapsilosis ATCC2001 = conditions: fungus
# Method in brief: as §1
# E. coli (ATCC 25922) [19] = conditions: standard strain
# Method in brief: as §1
# [20] = tested on: E-1b, clinical isolated drug-resistant strain ESBL; conditions: strain E-1b (ESBL)
# Method in brief: as §1
# C. albicans ATCC14053 = conditions: fungus
# Method in brief: as §1
# [21] = tested on: E-3b, clinical isolated drug-resistant strain ESBL; conditions: strain E-3b (ESBL)
# Method in brief: as §1
Substance,OM permeability of E. coli (E. coli (ATCC 25922) [1]),MIC C. tropicalis ATCC750 (C. tropicalis ATCC750),MIC [2],MIC [3],MIC [4],MIC [5],MIC P. aerugmosa ATCC27853 [6],MIC C. krusei ATCC6258 (C. krusei ATCC6258),MIC [7],MIC S. aureus ATCC29213 [8],MIC [9],MIC [10],MIC [11],MIC C. glabrata ATCC22019 (C. glabrata ATCC22019),MIC [12],MIC [13],MIC [14],MIC B. subtilis ATCC23857 [15],MIC [16],MIC S. epidermidis ATCC12228 [17],other results
"Pro-Phe-Lys-Leu-Ser-Leu-His-Leu-NH2 (PFKLSLHL-NH2) [Compound J-1, reference compound]",destroy the integrity of the E. coli OM in a dose-dependent manner,16 µM,32 µM,32 µM,32 µM,32 µM,32 µM,32 µM,128 µM,128 µM,128 µM,32 µM,32 µM,64 µM,128 µM,128 µM,32 µM,32 µM,32 µM,64 µM,MIC C. sakazakii ATCC29544 [18]: 64 µM; MIC C. parapsilosis ATCC2001 (C. parapsilosis ATCC2001): 32 µM; MIC C. coli ATCC25922 (E. coli (ATCC 25922) [19]): 32 µM; MIC [20]: 32 µM; MIC C. albicans ATCC14053 (C. albicans ATCC14053): 64 µM; MIC [21]: 32 µM
Pro-Trp-Orn-Leu-Orn-Leu-His-Leu-NH2 (PWXLXLHL; HELM PEPTIDE1{P.W.[Orn].L.[Orn].L.H.L.[am]}$$$$V2.0; N-terminus assumed; SMILES CC(C)C[C@H](NC(=O)[C@H](Cc1c[nH]cn1)NC(=O)[C@H](CC(C)C)NC(=O)[C@H](CCCN)NC(=O)[C@H](CC(C)C)NC(=O)[C@H](CCCN)NC(=O)[C@H](Cc1c[nH]c2ccccc12)NC(=O)[C@@H]1CCCN1)C(N)=O) [Compound 9],destroy the integrity of the E. coli OM in a dose-dependent manner,16 µM,8 µM,8 µM,8 µM,8 µM,8 µM,64 µM,64 µM,64 µM,64 µM,8 µM,8 µM,16 µM,64 µM,64 µM,8 µM,16 µM,8 µM,32 µM,MIC C. sakazakii ATCC29544 [18]: 16 µM; MIC C. parapsilosis ATCC2001 (C. parapsilosis ATCC2001): 16 µM; MIC C. coli ATCC25922 (E. coli (ATCC 25922) [19]): 8 µM; MIC [20]: 8 µM; MIC C. albicans ATCC14053 (C. albicans ATCC14053): 32 µM; MIC [21]: 8 µM
